Assays:
NOX activity = test system: T1, NOX activity; assay: Amplex Red measurement of extracellular hydrogen peroxide (NOX activity) in DMSO-differentiated HL60 cells; format: cell-based, Human; details: DPI 10 μM, 'usually'
T1 construct: rows headed: Residual activity of DPI-treated cells (NOX activity, % of control cells); other: Amplex Red, DPI 10 μM, 'usually'
Method: Human acute myeloid leukemia cell line HL-60 was cultured in RPMI 1640 (Invitrogen) supplemented with 10% heat-inactivated calf serum, 2 mM glutamine, 100 U/mL penicillin (Sigma), and 100 μg streptomycin (Sigma) at 37° C. under a humidified atmosphere of 5% CO2. HL60 differentiation to the neutrophil phenotype was triggered by adding Me2SO (final concentration 1.25% v/v for 6 days) to the culture medium.
Extracellular hydrogen peroxide was measured using Amplex UltraRed (Molecular Probes). Cells were trypsinized (1× Trypsin-EDTA), collected by centrifugation, and resuspended in HBSS supplemented with 1% glucose. Cells were seeded into black 96-well plates at a density of 50,000 cells in 200 μl testing buffer (HBSS 1% glucose containing 0.005 U/mL horseradish peroxidase (Roche) and 50 μM Amplex Red in the presence or absence of compounds according to the invention. As a control, DPI was included at a final concentration of 10 μM The plates were placed in the fluorescent Optima Fluorescent plate reader and kept at 37° C. during 20 min. Fluorescence was measured for […] with excitation and emission wavelengths of 544 nm and 590 nm respectively. NOX activities were expressed as % of the activity in control cells. Residual activity of DPI-treated cells was usually <10%.

NOX activities [1] = assay: Nitroblue tetrazolium (NBT) superoxide test in cells; format: cell-based; details: DPI 10 μM, 'usually'
Method: Intracellular and extracellular superoxide was measured by a colorimetric technique using a quantitative nitroblue tetrazolium (NBT) test. SOD-inhibitable conversion of NBT to formazan, a fine blue precipitate, in the presence of superoxide anion was measured using Fluostar Optima spectrometer (BMG labtech). Following incubation with appropriate stimuli, cells were trypsinized (1× Trypsin-EDTA), collected by centrifugation, and washed with PBS to remove medium. 5×10^5 cells were plated on 48-well plates and incubated in Hank's balanced salt solution containing 0.5 mg/mL NBT with or without 800 U/mL SOD in the presence or absence of compounds according to the invention. As a control, DPI was included at a final concentration of 10 μM. After 2.5 h, cells were fixed and washed with methanol to remove non reduced NBT. The reduced formazan was then dissolved in 230 μl of 2M potassium hydroxide and in 280 μl of dimethylsulfoxide. The absorption was measured at 630 nm. For calculation, the absorbance at 630 nm was normalized for each individual well. The mean of the four blank values was subtracted from each corrected value for each time point. NOX activities were expressed as % of the activity in control cells. Residual activity of DPI-treated cells was usually <10%.

NOX activities [2] = assay: Chemiluminescence (luminol) ROS measurement in cells; format: cell-based; details: 'usually'
Method: ROS was measured using the chemiluminescent probe luminol. Cells were cultured and plated as for Amplex Red except that the Amplex Red agent was replaced by 10 μg/mL luminol (Sigma 09235). Light emission was recorded continuously at 37° C. for 60 minutes using the luminescence function of the FluoStar Optima fluorescent plate reader. The mean of the four blank values was subtracted from each corrected value for each time point. NOX activities were expressed as % of the activity in control cells. Residual activity of DPI-treated cells was usually <10%.

NOX activities [3] = assay: H2DCF-DA ROS measurement in TGF-β stimulated HUVEC; format: cell-based, Human; details: 'usually'
Method: HUVEC are cultured in endothelial basal medium supplemented with hydrocortisone (1 μg/mL, CalbioChem), bovine brain extract (12 μg/mL), gentamicin (50 μg/mL, CalbioChem), amphotericin B (50 ng/mL, CalBioChem EGF (10 ng/mL, and 10% FCS until the fourth passage. When the fifth passage was started, cells were cultured with a lower concentration of FCS (2%) in the absence of EGF, if not indicated otherwise. All experiments were done with cells of the fifth passage. The cells were incubated with O×LDL (oxidized low-density lipoprotein) or its buffer as control for 24 h, before detection of O2^− formation.
HUVEC were plated on coverslips and made quiescent overnight in 0.5% BSA before stimulation with TGF-β. Cells were loaded for 10 minutes with 5 μM CM-H2DCFDA in phenol-red-free medium in the dark and then treated with TGF-β (R&D Systems) in the presence or absence of compounds according to the invention. Cells were then visualized by immunofluorescence microscopy after fixation and staining of the nuclei with DAPI or examined live using confocal microscopy. DCF fluorescence was visualized at an excitation wavelength of 488 nm and emission at 515 to 540 nm. […] For calculation, the absorbance at […] was normalized to absorbance at […] for each individual well. […] NOX activities were expressed as % of the activity in control cells. […]

collagen deposition [4] = assay: Bleomycin-induced lung injury in mice, preventive model (SIRCOL collagen assay); format: in vivo; details: day 35
Method: (§1) Control animals are subjected to the same protocol but received the same volume of intratracheal saline instead of BLM. Tracheal instillation is carried out under ketamin (80 mg/kg of body weight, i.p.) and xylazine (20 mg/kg de body weight, i.p.) anesthesia.
(§2) […] after endotracheal BLM or saline, the animals are killed by a lethal injection of sodium pentobarbital followed by exsanguination of abdominal aorta. Lungs are weighed and processed separately for biochemical (n=10 lungs per group) and histological studies (n=5 per group) as indicated below. The animals are randomly divided into four groups: control-saline (n=8) and control+BLM (n=15); Compound Dose 1+BLM (n=15) and Compound Dose 2+BLM (N=15). Treatments vehicle or compounds are administered for 5 weeks.
(§3) Mice are treated by daily oral administration of compound according to the invention or saline/control starting on day 0 for five weeks in the preventive model and starting on day 10 up to five weeks for the curative model. Whole lung accumulation of acid-soluble collagen is analyzed by Sircol assay.
The broad lines of the above protocol were followed. […] 35 days after endotracheal BLM or saline, the animals are killed and lungs are processed as indicated above for quantification of collagen deposition and lung inflammation by SIRCOL assay (TebuBio, ref S1000).

collagen deposition [5] = assay: Bleomycin-induced lung injury in mice, curative model (SIRCOL collagen assay); format: in vivo
Method: as §1, §2, §3
The broad lines of the above protocol were followed. At day 0, animals received an intratracheal injection of 0.0125 UI of bleomycin (40 μl) to produce pulmonary lesions. Curative treatment group was orally administered a compound of the invention once a day for 3.5 weeks starting from day 10 to day 35. The animals are randomly divided into six groups: control-saline (n=8); 2 groups control+BLM (n=13); Compound 3 of the invention per os 40 mg/kg+BLM (n=13); Compound 3 of the invention per os 10 mg/kg+BLM (n=13) and Pirfenidone (AQCHEM, ref P1002) at 100 mg/kg per os+BLM (n=13). One bleomycin control group was stopped at day 10, the animals were killed and collagen levels were measured. For the other groups, 35 days after endotracheal BLM or saline, the animals are killed and lungs are processed as indicated above for quantification of collagen deposition and lung inflammation as indicated above. […]

SMILES: c1ccc([I+]c2ccccc2)cc1 [DPI, Diphenyl-iodonium]
- Residual activity of DPI-treated cells (NOX activity, % of control cells) (NOX activity): < 10%
- Residual activity of DPI-treated cells (NOX activity, % of control cells) (NOX activities [1]): < 10%
- Residual activity of DPI-treated cells (NOX activity, % of control cells) (NOX activities [2]): < 10%
- Residual activity of DPI-treated cells (NOX activity, % of control cells) (NOX activities [3]): < 10%

SMILES: Cc1ccc(=O)n(-c2ccccc2)c1 [Pirfenidone]
- inhibition of collagen deposition as compared to bleomycin control (collagen deposition [4]; 100 mg/kg per os once a day from day 0 for five weeks): 45%
- inhibition of collagen deposition as compared to bleomycin control (collagen deposition [5]; 100 mg/kg per os once a day from day 10 to day 35, mice): 12%

SMILES: O=c1c2c3n(c(=O)cc2[nH]n1-c1ccccc1Cl)CCCN(Cc1ccccc1)C3 [Compound 3, 10-benzyl-2-(2-chlorophenyl)-2,3,8,9,10,11-hexahydro-1H-pyrazolo[4′,3′:3,4]pyrido[1,2-a][1,4]diazepine-1,5(7H)-dione]
- inhibition of collagen deposition as compared to bleomycin control (collagen deposition [4]; 40 mg/kg per os once a day from day 0 for five weeks): 46%
- inhibition of collagen deposition as compared to bleomycin control (collagen deposition [5]; 10 mg/kg per os once a day from day 10 to day 35, mice): 64%
- inhibition of collagen deposition as compared to bleomycin control (collagen deposition [5]; 40 mg/kg per os once a day from day 10 to day 35, mice): 52%

Source: patent US9394306B2, “Pyrazoline dione derivatives as NADPH oxidase inhibitors” (GENKYOTEX SA, priority 2009, dated 2016)
